Assay results: US9175055B2, “Use of fibromodulin and lumican for increasing muscle mass” (ASSOCIATION FRANCAISE CONTRE LES MYOPATHIES, priority 2011, dated 2015)
Several values for one entry are separate records, joined by “and”; a condition that tells them apart may be missing. Equal values may be shown once.

Key:
mature myostatin = target: T1, mature myostatin (Mus musculus, UniProt O08689); assay: ELISA-type test of direct interaction of biotinylated fibromodulin peptides with coated myostatin; format: binding; settings: FIG. 3
T1 sequence (O08689 268-376): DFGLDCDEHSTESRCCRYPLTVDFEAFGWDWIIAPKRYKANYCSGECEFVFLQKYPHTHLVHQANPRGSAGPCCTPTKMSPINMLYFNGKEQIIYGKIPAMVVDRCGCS
Description: The ELISA test (Enzyme Linked ImmunoSorbent Assay) is a test for detecting and/or assaying a protein present in a biological fluid. In the technique known as “sandwich” assay, the wells of a microtiter plate are covered with a capture antibody capable of binding specifically to the desired antigen. During this operation called “coating”, the capture antibody binds to the plastic of the wells by electrostatic interaction. The capture antibody ensures the specificity of the test. The solution to be tested is then deposited into the wells of the microtiter plate and, if the desired antigen is present, it will bind specifically to the capture antibody. A second antibody, the tracer antibody, capable of binding to the captured antigen is then added to the wells, and the unbound tracer antibodies are eliminated by rinsing. The tracer antibody is coupled to an enzyme catalyzing the formation of a colored product.
The principle of this technique was used to study the direct interaction of the mature myostatin with the peptides 69-101 Fmod Biotin and 69-101 Fmod Biotin mutated (see sequences below). For this, 3 μl of myostatin at a concentration of 100 ng/μl are taken up in 50 μl of carbonate buffer and added to each well of the assay plate (R&D Systems DY990). After an overnight incubation at 4° C., the plate is washed with 100 μl of PBS-Tween (0.05% Tween 20), then the blocking step to saturate non-specific sites is carried out for 2 hours at room temperature with 100 μl of PBS and 6% of milk per well. Five successive washes with 200 μl of PBS-Tween (0.05% Tween 20) are performed and increasing amounts of biotinylated fibromodulin peptides are then deposited (100 μl final in PBS) and the plate is incubated for 1 hour at 37° C. For the positive control, an antibody of goat anti-myostatin (≠AF788, R&D Systems), which was deposited in the control wells and incubated for 1 hour at 1/100th (0.1 mg/ml) was […]. The wells were then washed 5 times with PBS-Tween (0.05% Tween 20). To detect binding of the biotinylated peptides to MSTN, streptavidin-HRP (≠N100, Pierce) was used at 1/20,000th. was added to the wells. For the controls points with the goat anti-myostatin antibody, an HRP-marked (≠ab6885, Abcam) polyclonal secondary donkey anti-goat antibody was added (at 1/4000th)). After five washes, adding the peroxidase substrate, the TMB Substrate Reagent Set (Tetramehylbenzidine, OptEIA, ≠555214) allows the obtention of a colored reaction proportional to the quantity of HRP present in the wells. The reaction is stopped after 20 minutes by addition of sulfuric acid 2N, and the plate is read at 450 nm on a Discovery HT-R spectrophotometer (Bio-TEK).
Buffer Composition: 0.1 M carbonate buffer: 4.2 g NaHCO3, 1.78 g of […] in 500 ml of H20 MilliQ, pH 9,5. Storage at 4° C.

mdx mice [1] = assay: Comparative muscle hypertrophy 18 days after intramuscular injection of peptides in dystrophic mdx mice; format: in vivo; settings: for Hypertrophy %: 18 days after IM injection, average of five mdx mice, TAG versus TAD; for increase in muscular hypertrophy, factor compared to decorin: day 18, mdx mice
Procedure: (§1) Mdx mice (C57BL/10ScSn-DmD^max/J) from colonies maintained at Genethon. Mice aged at least six weeks were used. All experiments were performed in accordance with European ethical rules regarding the use of animals for experimental research.
(§2) Intramuscular injection is performed on animals anesthetized at the tibialis anterior muscle (TA). The injected volume was around 20-35 μl. The injection is performed in the middle of TA Left (TAG). An equal volume of NaCl 150 mM/15 μM ZnCl2 was systematically injected into the right anterior tibialis (TAD) to serve as a control. After a specified number of days after the injection, the TAD and TAG were taken after sacrificing the mice, which were weighed and frozen for histological studies.
The peptide fibromodulin (Fmod, SEQ ID NO: 2) and lumican (mLumican, SEQ ID NO: 5) were dissolved in water and stored at −80° C. For the injections, the preparation procedure is as follows: 24-40 hours before the injection, the desired quantity of peptide is removed from the stock solution and mixed with a solution of zinc chloride (ZnCl2) and 150 mM NaCl so as to have a final concentration of 15 μM of zinc. The peptide was stored at 4° C. until injection.
4/In vivo Comparative Study of Muscle Hypertrophy 18 Days after Injection of Dystrophic mdx Mice with Decorin Peptide (MdCN 31-71, SEQ ID NO: 75), Fibromodulin (mFmod 69-101) or lumican (mLum 30-62):
The TAD and TAG muscles were removed 18 days after injection of the peptides, and then weighed. The experiment was performed on five separate mice.

[2] = target: T2, recombinant murine myostatin (Mus musculus, UniProt O08689); assay: Inhibition of myostatin activity, pGL3-(CAGA)12-Luc reporter in HEK293T cells; format: cell-based; settings: 2.5 nM myostatin, FIG. 1 and 2
T2 sequence (O08689 268-376): T1 sequence (O08689 268-376)
Description: The plasmidic construction pGL3-(CAGA)12-firefly luciferase (notated pGL3-(CAGA)12-Luc) obtained by MTA of the Pr. Carl-Henrik Heldin (Ludwig Institute for Cancer Research, Sweden) contains 12 CAGA copies of the consensus SBE (Smad Binding Element) consensus sequence and allows to indirectly measure the binding of myostatin to its receptor. Indeed, when myostatin binds to the receptor Activin IIb, the Smad 3 and 4 proteins are activated and will bind to the 12 CAGA copies. The promoter of the cassette pGL3-(CAGA)12-Luc is thus activated, which results in luciferase production. The myostatin/Activin IIb binding can be followed, therefore, by measuring the luciferase.
The ability of the peptides to inhibit the in vitro activity of the myostatin has been evaluated on embryonic human kidney cells 293T by means of the pGL3-(CAGA)12-Luc construction. For this, 350,000 293T cells were placed per well in a 24-well plate. After 24 hours of culture, the cells were transfected with a mixture of 8 μl de PEI (PEI 25 kDa; Sigma) and 2 μg of plasmide pGL3-(CAGA)12-Luc/well. […] Twenty-four hours after transfection, 2.5 nM of recombinant murine myostatin, mixed or not mixed with various quantities of fibromodulin or lumican peptides were added to each well. […] Twenty-four hours after incubation, the cells were lysed, then collected to be assayed for luciferase activity and the quantity of protein.

mdx mice [3] = assay: Muscle weight on D20 after intramuscular injection into Tibialis Anterior of mdx mice; format: in vivo; settings: D20, individual mdx mice
Procedure: as §1, §2
The peptide fibromodulin (Fmod, SEQ ID NO: 2) and lumican (mLumican, SEQ ID NO: 5) were dissolved in water and stored at −80° C. For the injections, the preparation procedure is as follows: 24-40 hours before the injection, the desired quantity of peptide is removed from the stock solution and mixed with a solution of zinc chloride (ZnCl2) and 150 mM NaCl so as to have a final concentration of 15 μM of zinc. The peptide was stored at 4° C. until injection. […]
On D20, the mice were sacrificed and the weight of the TAG and TAD muscles was measured.

Substance	interaction with myostatin (absorbence at 450 nm) (mature myostatin; in the presence of zinc)	Hypertrophy % (mdx mice [1]) [%]	increase in muscular hypertrophy, factor compared to decorin (mdx mice [1])	induction of the pCAGA-Luc promoter (inhibition of myostatin activity) [2]	also measured
Biotine-PPPEPRDCPQECDCPPNFPTAMYCDNRNLKYLP-CONH2 [biotinylated mFmod 69-101]	direct interaction takes place				
mDCN 31-71: Decorin Peptide (MdCN 31-71, SEQ ID NO: 75), comparator from prior art WO 2010/106295 (DEASGIIPYDPDNPLISMCPYRCQCHLRVVQCSDLGLDKVP; 31-71 mouse decorin fragment) [reference compound]		10.02 ± 8.3			
YGQISPNCAPECNCPHSYPTAMYCDDLKLKSVP (30-62 mouse lumican) [mLum 30-62, fragment corresponding to residues 30 to 62 of murin lumican]		37.26 ± 14.69	3.7	net inhibition of the promoter in a dose-dependent manner	
PPPEPRDCPQECDCPPNFPTAMYCDNRNLKYLP (69-101 mouse fibromodulin Fmod) [mFmod 69-101, fragment corresponding to residues 69-101 of murine fibromodulin]		29.34 ± 15.76	2.9	net inhibition of the promoter in a dose-dependent manner	Weight of injected muscle (TAG) (mdx mice [3]; 50 μg peptide + 15 μM ZnCl2 IM in left Tibialis Anterior): 66.5 mg and 75.4 mg and 74.6 mg and 65.2 mg and 73.9 mg; Growth (TAG versus control TAD) (mdx mice [3]; 50 μg peptide + 15 μM ZnCl2 IM): 22.24% and 5.31% and 19.94% and 5.33% and 12.31%; interaction with myostatin (absorbence at 450 nm) (mature myostatin; in the absence of zinc): no interaction is seen; amount of peptide from which a plateau of absorbence is obtained (mature myostatin; in the presence of zinc): ≥ 4.2 µg
Biotine-PPPEPRDCPQEADAPPNFPTAMYADNRNLKYLP- CONH2 [mutated biotin mFmod peptide]	no interaction is visible				
